PubChem BioAssay AID743264
Active and inactive are the calls of the source.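 How the source made its calls: active means mean IC50 for blocking HCV helicase binding to DNA at 50 µM or lower; inactive means mean IC50 above 50 µM.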

Target: HCV NS3 helicase (NS3h) (UniProt A3EZJ3)
Assay: HCV NS3 helicase inhibitor potency, dose response, biochemical, fluorescence polarization, ChemBridge library (AID 743264)
Conditions: NS3h binding Cy5-dT15 DNA

Chain of HCV NS3 helicase (NS3h) (A3EZJ3 1-631): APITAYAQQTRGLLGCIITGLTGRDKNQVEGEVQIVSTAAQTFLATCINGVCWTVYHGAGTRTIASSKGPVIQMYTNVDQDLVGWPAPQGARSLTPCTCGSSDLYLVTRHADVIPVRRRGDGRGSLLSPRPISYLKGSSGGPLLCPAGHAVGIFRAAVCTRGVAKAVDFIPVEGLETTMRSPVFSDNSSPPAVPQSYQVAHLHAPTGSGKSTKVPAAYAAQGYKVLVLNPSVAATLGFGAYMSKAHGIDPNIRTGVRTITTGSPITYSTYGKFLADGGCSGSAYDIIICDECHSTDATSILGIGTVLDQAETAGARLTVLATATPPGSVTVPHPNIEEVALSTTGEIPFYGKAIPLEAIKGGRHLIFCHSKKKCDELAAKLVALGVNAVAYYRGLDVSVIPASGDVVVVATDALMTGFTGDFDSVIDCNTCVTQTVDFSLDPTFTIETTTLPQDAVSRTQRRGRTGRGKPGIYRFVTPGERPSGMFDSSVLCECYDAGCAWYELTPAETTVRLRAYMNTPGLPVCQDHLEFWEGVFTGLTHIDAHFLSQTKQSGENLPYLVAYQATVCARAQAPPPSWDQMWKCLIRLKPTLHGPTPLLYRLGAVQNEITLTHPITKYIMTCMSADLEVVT

SMILES	IC50
O=C1C=CC(=O)N1c1cccc([N+](=O)[O-])c1	inactive
Cc1ccc(N2C(=O)C=CC2=O)c(Br)c1	inactive
